This note sets out measurements from patent US20250281561A1, “APPLICATION OF LYCIUM BARBARUM LEAF EXTRACT IN PREPARING DRUG FOR TREATING DIABETIC RETINOPATHY” (NANJING UNIVERSITY OF CHINESE MEDICINE, priority 2025, published 2025).

The test system of assay [1] is ARPE-19 cells with high glucose-induced damage. In words: ROS content (H2FCDA fluorescence) in ARPE-19 cells with high glucose-induced damage. The class given is cell-based. As to conditions: high dose 10 g/mL, low dose 1 μg/mL, compared with model group. The protocol: (§1) The ARPE-19 cells were cultured in DMEM/F12 culture medium containing 10% FBS and 1% penicillin/streptomycin at 37° C. under 5% CO2. A model group was treated with 300 mM glucose, and the culture medium was added with a corresponding drug to culture the cells for 48 hours to complete the modeling.
The cells were inoculated into a 96-well plate during culture, and divided into a Con group, a Mod group, a ST-H group, a ST-L group, a CT-H group, a CT-L group, a FT-H group, a FT-L group, a DT-H group, a DT-L group, a SWJ-H group, and a SWJ-L group, wherein the high dose was […] and the low dose was 1 μg/mL. After the culture was completed, the culture medium was discarded, and a culture medium containing 1/1000 H2FCDA was added to incubate the cells at 37° C. for 30 minutes. A photo was taken by a fluorescence microscope at an excitation wavelength of 488 nm, and a fluorescence intensity was analyzed by ImageJ.

In assay [2] the test system is DR zebrafish. In words: Kit detection of glucose content and oxidative stress level (GSH, SOD, MDA) in DR zebrafish. The format is in vivo. On the procedure:
(§2) 3dpf zebrafish embryos were cultured in a 6-well plate, with 30 zebrafish embryos in each well. A model group and an administration group were cultured in 100 mg/mL circulating water, and divided into a Con group, a Mod group, a metformin (MET) group, a ST-H group, a ST-L group, a CT-H group, a CT-L group, a FT-H group, a FT-L group, a DT-H group, a DT-L group, a SWJ-H group, and a SWJ-L group. An administration dosage for the MET group was 200 μg/ml, and a crude drug dosage was converted for other administration groups, wherein a high dose was 40 μg/mL, and a low dose was 20 μg/mL. The zebrafish embryos were cultured for three days, and the water was replaced at a fixed time every day.
Wild A/B-type zebrafish embryos were cultured according to the above method, and then the zebrafish embryos were collected into Ep tubes and then homogenized, and centrifuged at 4000 rpm for 10 minutes. A supernatant was taken, and GLU and GSH levels and SOD and MDA activities in cells were detected according to a kit instruction.

Assay [3] has as its system p38, ERK and JNK genes in a MAPK pathway. As to the kind of experiment: qPCR gene expression level (p38, ERK, JNK) in DR zebrafish. The format is in vivo. The note with it: crude drug dosage high 40 μg/mL, low 20 μg/mL, three days, compared with model group. On the procedure: as §2
The cultured zebrafish embryos were collected into Ep tubes, and each tube was added with 1 mL of TRIZOL and then homogenized, and centrifuged at 4° C. and 12000× g for 10 minutes. A supernatant was taken, and other operations were as described in 2.3.
Background: Quantitative PCR measures a nucleic acid by following its amplification.

Assay [4] shares this test system. As to the kind of experiment: qPCR gene expression level (p38, ERK, JNK) in ARPE-19 cells with high glucose-induced damage. The format is cell-based. As to conditions: 10 μg/mL, compared with model group. The protocol: as §1
The cells were inoculated into a 6-well plate during cell culture, and divided into a Con group, a Mod group, a ST group, a CT group, a FT group, a DT group, and a SWJ group, wherein the administration dosage was 10 μg/mL. The cells were collected into Ep tubes and centrifuged at 1000 rpm for 5 minutes, and a supernatant was discarded. Each tube was added with 1 ml of Trizol reagent and blown violently for 15 seconds to mix fully and evenly, and the mixture was allowed to stand at room temperature for 2-3 minutes, and rotated at 4° C. for 1-2 hours. […] A concentration was determined by an ultra-micro ultraviolet spectrophotometer, and then the mixture was stored in a refrigerator at −80° C. for later use. […]
The reaction system was mixed fully and evenly, added to a 96-well PCR plate, centrifuged, and determined by a PCR machine. […] A CT value of a sample was determined, and then relative expressions of p38, JNK and ERK in the sample were calculated by a 2-ΔΔCT method.

For assay [5], the system named is DR zebrafish. In words: Retinal vascular diameter in DR zebrafish (fli1: EGFP, fluorescence microscope, ImageJ). The format is in vivo. The note with it: crude drug dosage high 40 μg/mL, low 20 μg/mL, three days, compared with model group. The protocol: as §2
3dpf fli1: EGFP zebrafish embryos were cultured by the method as described in 2.4, and 0.003% phenylthiourea (PTU) was added into circulating water to inhibit melanogenesis of the zebrafish embryos. After the culture was completed, the zebrafish embryos were collected, and fixed on a glass slide. The retinal vessels in the zebrafish were photographed by a fluorescence microscope, and a retinal vascular diameter was measured by ImageJ.

In assay [6] the test system is ARPE-19 cells with high glucose-induced damage. In words: CCK8 survival rate of ARPE-19 cells with high glucose-induced damage. The note with it: 300 mM glucose, 48 hours; high dose 10 μg/mL, low dose 1 μg/mL; compared with model group. The format is cell-based. The protocol:
Preparation method of active ingredient solution of Lycium barbarum leaf: 1 mg of freeze-dried powder of different active ingredients of Lycium barbarum leaf (Lycium barbarum leaf water extract, Lycium barbarum leaf ethanol extract, refined Lycium barbarum leaf extract, Lycium barbarum polysaccharide, and betaine) prepared in Embodiment 1 was weighed respectively, and dissolved in 1 mL of DMEM/F12 culture medium to prepare 1 mg/mL solution, and the solution was diluted to a required concentration with DMEM/F12 culture medium during administration, and filtered with a […] filter for sterilization. […]
The cells were inoculated into a 96-well plate during culture, and divided into a control group (Con group), a model group (Mod group), a high-dose Lycium barbarum leaf water extract group (ST-H group), a low-dose Lycium barbarum leaf water extract group (ST-L group), a high-dose Lycium barbarum leaf ethanol extract group (CT-H group), a low-dose Lycium barbarum leaf ethanol extract group (CT-L group), […], a low-dose Lycium barbarum polysaccharide group (DT-L group), a high-dose betaine group (SWJ-H group), and a low-dose betaine group (SWJ-L group), wherein the high dose was 10 μg/mL and the low dose was 1 μg/mL. […] An absorbance was measured at 450 nm, and a cell survival rate was calculated.

Assay [7] shares this test system. As to the kind of experiment: Kit detection of oxidative stress level (GSH, SOD, MDA) in ARPE-19 cells with high glucose-induced damage. The class given is cell-based. The note with it: summary statement. The protocol:
Preparation method of active ingredient solution of Lycium barbarum leaf: 1 mg of freeze-dried powder of different active ingredients of Lycium barbarum leaf (Lycium barbarum leaf water extract, Lycium barbarum leaf ethanol extract, refined Lycium barbarum leaf extract, Lycium barbarum polysaccharide, and betaine) prepared in Embodiment 1 was weighed respectively, and dissolved in 1 mL of DMEM/F12 culture medium to prepare 1 mg/mL solution, and the solution was diluted to a required concentration with DMEM/F12 culture medium during administration, and filtered with a […] filter for sterilization.
as §1
The cells were inoculated into a 6-well plate during cell culture, and divided into a Con group, a Mod group, a ST-H group, a ST-L group, a CT-H group, a CT-L group, a FT-H group, a FT-L group, a DT-H group, a DT-L group, a SWJ-H group, and a SWJ-L group, wherein the high dose was 10 μg/mL and the low dose was 1 μg/mL. […] A GSH level, and SOD and MDA activities in the cells were detected according to a kit instruction.

In the case of `C[N+](C)(C)CC(=O)O` [betaine], the “ROS content (ROS fluorescence intensity)” value in assay [1] was “significantly reduce the generation of ROS”. The oxidative stress result in the assay with DR zebrafish [2] (DR zebrafish model, summary statement) was “improve oxidative stress”; in assay [7], “improve oxidative stress”. For the same compound, the glucose content entry in the assay with DR zebrafish [2] (DR zebrafish, crude drug dosage high 40 μg/mL, low 20 μg/mL, three days, compared with model group) is listed as “reduce a glucose content in vivo”. Moreover, the “relative mRNA expressions of p38, ERK and JNK” value in assay [3] and in assay [4] was “down-regulate expression levels” in each case. In the assay with DR zebrafish [5], the retinal vascular diameter entry is “significantly reduce a retinal vascular diameter”. In addition, the “survival rate of ARPE-19 cells” value in assay [6] was “improve a survival rate”.
